Source: US20080057047A1, “Use of bacillus amyloliquefaciens PB6 for the prophylaxis or treatment of gastrointestinal and immuno-related diseases” (priority 2005, published 2008)
Values after ≈ are worked out from the molar mass of the structure shown. Where two headings read alike, the source gives them in different places. Numbered stars: 1 amine (or outer) side, 2 acyl side, 3 side chain; on linkers, the order of the positions; unused ones are H or OH. Bridge positions count the residues as written; N and C are the ends. Square brackets hold non-standard residues; d marks the D form. Peptide text beside a SMILES is read from it. X1 = CC(C)CCCCCCCCC[C@H](CC(=O)[*:1])O[*:2]

Experiments:
TNBS-induced colitis = TNBS-induced colitis in rats; format: in vivo, Wistar rats; conditions: for number of observations of diarrhea recorded / number of animals affected by diarrhea: day 1 to 7
Source text: Two consecutive trials were done. Male Wistar rats were obtained from the National Centre for Laboratory Animal Sciences (Hyderabad, India) (trial 1) or from the Department of Animal Medicine, […], India) (trial 2). […] Upon their arrival at the test facility, the animals were given a complete clinical examination under the supervision of a veterinarian to ensure that they were in good condition. The animals were acclimatized to the study conditions for a period of at least 7 days. Per trial, animals were randomised and allocated to one of the study groups. […] All animals had free access (except for the overnight fasting prior to TNBS administration) to rat pellet feed from the National Institute of Nutrition (NIN, Hyderabad, India) and Aquaguard purified water ad libitum. In both trials the day of induction of colitis was set as day 1. […] The colitis-negative control groups were given saline intrarectally (0.5 ml per animal once) on day 1. […] Except for infliximab, which was injected intravenously^59, all treatments were administered by gavage. Twice daily observations were made for clinical signs and mortality. […] These segments were opened longitudinally. […] Mesalazine (Mesacol®, Sun Pharmaceutical Ind. Ltd, Mumbai, India) tablets were powdered using pestle and mortar and a solution in distilled water was prepared containing 25 mg 5-aminosalicylic acid per ml. […] Remicade® (Infliximab) (Centocor B. V., Leiden, The Netherlands) was first reconstituted with 10 ml water for injection and was further diluted to 2 mg/ml concentration using saline. […] All body weight dependant doses were administered on the basis of the last individual body weight taken. Fresh preparations were made prior to each administration. The preparations were stirred vigorously before each dosing.

cytosolic PLA2 = biological target: T1, cytosolic PLA2 (Homo sapiens, UniProt P47712); conditions: known from literature; cited from earlier work
T1 sequence (P47712 1-749): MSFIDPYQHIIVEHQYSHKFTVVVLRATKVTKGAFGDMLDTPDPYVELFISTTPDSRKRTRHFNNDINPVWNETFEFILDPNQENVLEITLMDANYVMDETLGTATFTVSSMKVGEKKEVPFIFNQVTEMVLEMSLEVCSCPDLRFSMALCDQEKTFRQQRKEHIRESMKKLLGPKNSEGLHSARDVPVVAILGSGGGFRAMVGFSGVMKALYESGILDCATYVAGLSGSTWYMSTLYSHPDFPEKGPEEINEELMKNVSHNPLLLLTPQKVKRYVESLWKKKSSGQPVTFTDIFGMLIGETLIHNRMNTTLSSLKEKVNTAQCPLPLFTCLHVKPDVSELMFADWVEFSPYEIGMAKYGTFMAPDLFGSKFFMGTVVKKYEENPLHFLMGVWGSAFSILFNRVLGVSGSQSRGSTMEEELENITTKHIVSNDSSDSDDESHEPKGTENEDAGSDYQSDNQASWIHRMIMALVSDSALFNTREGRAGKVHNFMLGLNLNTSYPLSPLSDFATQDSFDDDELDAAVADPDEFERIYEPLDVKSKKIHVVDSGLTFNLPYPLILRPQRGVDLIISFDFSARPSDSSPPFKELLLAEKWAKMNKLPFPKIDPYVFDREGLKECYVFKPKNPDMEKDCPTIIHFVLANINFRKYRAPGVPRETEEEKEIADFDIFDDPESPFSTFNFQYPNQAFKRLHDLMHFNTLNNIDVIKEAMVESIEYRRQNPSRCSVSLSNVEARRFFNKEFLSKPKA

C. perfringens ATCC13124 = assay: microbe, parasite or virus in culture; format: cell-based; conditions: Clostridium perfringens, ATCC13124, 18 h
Clostridium perfringens = assay: microbe, parasite or virus in culture; format: cell-based
[1] = Immune response (phagocytosis) in male broilers; format: in vivo; conditions: 100 mg/kg zinc bacitracin
[2] = test system: Clostridium difficile ATCC 9689; assay: Clindamycin-induced CDAD hamster model; format: in vivo, Golden Syrian hamsters; conditions: for diarrhea score / Number of animals with diarrhea: vancomycin 50 mg/Kg oral once daily days 2-6; for Number of animals tested positive for C difficile toxins A or B in faeces: vancomycin
[3] = Trial 1, Day 1 (baseline), mesalazine 250 mg/Kg/day, infliximab 3 mg/Kg single i.v. dose
[4] = Trial 1, Day 1 to 7, mesalazine 250 mg/Kg/day, infliximab 3 mg/Kg single i.v. dose
[5] = Trial 1, Day 4, mesalazine 250 mg/Kg/day, infliximab 3 mg/Kg single i.v. dose
[6] = Trial 1, Day 7, mesalazine 250 mg/Kg/day, infliximab 3 mg/Kg single i.v. dose
[7] = Trial 1, scale 0-5, mesalazine 250 mg/Kg/day, infliximab 3 mg/Kg single i.v. dose
[8] = Trial 1, mesalazine 250 mg/Kg/day, infliximab 3 mg/Kg single i.v. dose
[9] = Trial 2, Day 1 (baseline), PB6 and S. boulardii 1.5 10^8 CFU/Kg 3 times daily, mesalazine 250 mg/Kg/day, infliximab 3 mg/Kg single dose
[10] = Trial 2, Day 1 to 7, doses as for Day 1
[11] = Trial 2, Day 4, doses as for Day 1
[12] = Trial 2, Day 7, doses as for Day 1
[13] = Trial 2, scale 0-5, PB6 and S. boulardii 1.5 10^8 CFU/Kg 3 times daily, mesalazine 250 mg/Kg/day, infliximab 3 mg/Kg single dose
[14] = Trial 2, PB6 and S. boulardii 1.5 10^8 CFU/Kg 3 times daily, mesalazine 250 mg/Kg/day, infliximab 3 mg/Kg single dose
[15] = first trial, mesalazine 250 mg/Kg/day, infliximab 3 mg/Kg single dose
[16] = second trial, PB6 and S. boulardii 3×1.5 10^8 CFU/Kg/day, mesalazine 250 mg/Kg/day, infliximab 3 mg/Kg single dose
[17] = trial 1, one individual rat, infliximab 3 mg/Kg

Row | Molecule | Av. Body weight (TNBS-induced colitis; [3]) [g] | Av. Body weight gain (%) (TNBS-induced colitis; [4]) | Av. Body weight (TNBS-induced colitis; [5]) [g] | Av. Body weight (TNBS-induced colitis; [6]) [g] | Gross morphology score (TNBS-induced colitis; [7]) | Wet weight (g) of a 5 cm colon segment (TNBS-induced colitis; [8]) | Av. Body weight (TNBS-induced colitis; [9]) [g] | Av. Body weight gain (%) (TNBS-induced colitis; [10]) | Av. Body weight (TNBS-induced colitis; [11]) [g] | Av. Body weight (TNBS-induced colitis; [12]) [g] | Gross morphology score (TNBS-induced colitis; [13]) | Wet weight (g) of a 5 cm colon segment (TNBS-induced colitis; [14]) [g] | number of observations of diarrhea recorded (TNBS-induced colitis; [15]) | number of animals affected by diarrhea (TNBS-induced colitis; [16]) | number of observations of diarrhea recorded (TNBS-induced colitis; [16]) | further results
1 | Nc1ccc(O)c(C(=O)O)c1 [Mesalazine, 5-aminosalicylic acid] | 181 ± 11 | 8.8 ± 1.4 | 187 ± 10 | 196 ± 10 | 0.8 ± 0.4 | 0.435 ± 0.052 g | 207 ± 12 | −3.3 ± 5.5 | 199 ± 18 | 201 ± 20 | 1.2 ± 0.8 | 0.445 ± 0.145 | 0 | 1 | 12 | 
2 | CC(C)CCCCCCCCC[C@@H]1CC(=O)N[C@@H](CCC(=O)O)C(=O)N[C@@H](CC(C)C)C(=O)N[C@H](CC(C)C)C(=O)N[C@@H](C(C)C)C(=O)N[C@@H](CC(=O)O)C(=O)N[C@H](CC(C)C)C(=O)N[C@@H](CC(C)C)C(=O)O1 [surfactin] (EL[dL]VD[dL]L; linker N-C via X1) |  |  |  |  |  |  |  |  |  |  |  |  |  |  |  | inhibition of the activity of cytosolic PLA2 (cytosolic PLA2): inhibits; MIC (C. perfringens ATCC13124): 10 to 25 mg/L (≈ 9.65 to 24.1 µM); MIC (Clostridium perfringens; read-out: MIC (C. perfringens), 30′ 0.1 N HCl, 37° C.): 10 to 25 mg/L (≈ 9.65 to 24.1 µM); MIC (Clostridium perfringens; read-out: MIC (C. perfringens), 60′ 0.1 N HCl, 37° C.): 25 to 50 mg/L (≈ 24.1 to 48.2 µM); MIC (Clostridium perfringens; read-out: MIC (C. perfringens), 90′ 0.1 N HCl, 37° C.): 25 to 50 mg/L (≈ 24.1 to 48.2 µM); MIC (Clostridium perfringens; read-out: MIC (C. perfringens), No HCL): 1 to 10 mg/L (≈ 0.965 to 9.65 µM)
3 | zinc bacitracin |  |  |  |  |  |  |  |  |  |  |  |  |  |  |  | Phagocytosis [1]: 6.23
4 | CN[C@H](CC(C)C)C(=O)N[C@H]1C(=O)N[C@@H](CC(N)=O)C(=O)N[C@H]2C(=O)N[C@H]3C(=O)N[C@H](C(=O)N[C@H](C(=O)O)c4cc(O)cc(O)c4-c4cc3ccc4O)[C@H](O)c3ccc(c(Cl)c3)Oc3cc2cc(c3O[C@@H]2O[C@H](CO)[C@@H](O)[C@H](O)[C@H]2O[C@H]2C[C@](C)(N)[C@H](O)[C@H](C)O2)Oc2ccc(cc2Cl)[C@H]1O [Vancomycin, vancomycin] |  |  |  |  |  |  |  |  |  |  |  |  |  |  |  | Average body weight ([2]; Day 0 (baseline), CDAD induced, vancomycin 50 mg/Kg): 218.0 ± 4.6 g; diarrhea score ([2]; Day 1): +; Number of animals with diarrhea ([2]; Day 1, 6 animals): 1; Number of animals tested positive for C difficile toxins A or B in faeces ([2]; Day 1, 6 tested): 0; Number of animals with diarrhea ([2]; Day 2): 2; diarrhea score ([2]; Day 2): ++; Number of animals tested positive for C difficile toxins A or B in faeces ([2]; Day 2, 6 tested): 2; Number of animals with diarrhea ([2]; Day 3): 2; diarrhea score ([2]; Day 3): +++; Number of animals tested positive for C difficile toxins A or B in faeces ([2]; Day 7, 4 tested): 1; Survival at end of treatment period ([2]; day 6, vancomycin 50 mg/Kg once daily): 4 out of 6
5 | Infliximab: Remicade® (Infliximab), Centocor, standard drug | 180 ± 14 | 1.3 ± 5.4 | 183 ± 7 | 186 ± 6 | 3.0 ± 1.4 | 1.055 ± 0.490‘ g | 208 ± 15 | −5.2 ± 3.4 | 197 ± 14 | 197 ± 13 | 2.0 ± 0.7 | 0.657 ± 0.076 | 8 | 2 | 24 | number of animals affected by diarrhea (TNBS-induced colitis; first trial, infliximab 3 mg/Kg single dose): 1; colon segment weight of one rat (TNBS-induced colitis; [17]): 0.402 g; gross morphology score of one rat (TNBS-induced colitis; [17]): 1
